Assay results from patent US6849607B2, “Galectin recognized photosensitizers for photodynamic therapy” (Health Research, Inc., priority 2001, dated 2005).
Several values for one entry are separate records, joined by “and”; a condition that tells them apart may be missing. Equal entries are not always repeated.

Key:
[1] = system: radiation induced fibrosarcoma (RIF) tumor cell; assay: In vitro photosensitizing activity in RIF tumor cells (MTT); type: cell-based; conditions: 2.0 μM, light dose of 4 J/cm2
Procedure: Both cell lines are known to have some expression for Galectin-1 (Sacchettini, J. C., Baum, L. G. and Brewer, C. F., Multivalent Protein-carbohydrate Interactions. A New Paradiagm for Super Molecular Assembly and Signal Transduction, Biochemistry, 40:3009-3015, 2001). The Molt-4 cells were grown in RPMI 1640 5% FCS (Fetal calf serum) in 100% humidity with 5% CO2. Cells were transferred to phenol red free (PRF) RPMI 1640 media with 1% FCS and plated at 2.5×10^4 cells/well. After 3 hours incubation in the dark, the cells were washed once with PBS and re-suspended in prf RPMI 1640 with 1% FCS. These cells were then illuminated with a 1000W Quartz Halogen Lamp with IR and bandpass dichroic filters to allow light between 400 nm-700 nm, at a dose rate of 16 mW/cm^2 at 695 nm. The RIF tumor cells were grown in alpha-DMEM with 10% fetal calf serum, penicillin and streptomycin. Cells were maintained in 5% CO2, 95% air and 100% humidity. For determining the PDT efficacy, these cells were plated in 96-well plates and a density of 1×10^4 cells well in complete media. After overnight incubation to allow the cells to attach the photosensitizers 14 were individually added at variable concentrations. After a 3 hr incubation in the dark at 37° C., the cells were washed once with PBS, then irradiated with the same light source as above (Molt-4 procedure), and the optimal cell kill was obtained at a concentration of 1.0 μM. After PDT the cells were washed once and placed in complete media and incubated for 48 hrs. […] The 96-well plate was read on a microtiter plate reader (Miles Inc. Titertek Multiscan Plus MK II) at an absorbance of 560 nm. […]

Molt-4 cells = assay: Cellular localization by fluorescence microscopy in Molt-4 cells; type: cell-based, human
Procedure: For investigating the difference in sites of localization between the photosensitizers with and without carbohydrate moieties, the fluorescence light microscopy experiments were performed in Molt-4 and RIF tumor cell lines. In a typical experiment, cells were imaged at 100× on an inverted fluorescence microscope (Carl Zeiss Inc. Axiovert 35.W.Germany) with a charged-coupled device camera (Dage-MTI, model 104722-02). Images were captured and processed by computer using Image-1 image processing software (Universal Imaging Corp., version 4.0, WestChester, Pa.). The photosensitizer fluorescence was assessed by using 530-585 nm excitation and 615 nm long-pass filter to measure emission while 338-378 nm excitation for DPH, and a 450 nm emission filter for emission (400 nm dichroic). […] In addition, […]1-(4-trimethylammonium)-6-phenyl-1,3,5-hexatriene (TMA-DPH), a hydrophobic fluorescent probe which interacts with living cells by instantaneous incorporation into plasma membrane and becomes fluorescent (Illinger, D., and Kuhry, J. G., The Kinetic Aspects of Intracellular Fluorescence Labeling with TMA-DPH Support the Maturation Model for Endocytosis in L929 Cells, The Journal of Cell Biology, 125:783-794, 1994), was added for the last 5 min of the incubation, cells were washed once with PBS and transferred to a microscope slide for imaging. […]

Gal-1 = Gal-1 (Homo sapiens, UniProt P09382); assay: Gal-1 inhibition binding, indirect ELISA (Gal-1-HRP conjugate on asialofetuin-coated wells)
Procedure: Cell. Biochem., 43, 43-57, 1990) to eliminate the thiol requirement for retention of carbohydrate-binding activity. Coupling of alkylated galaptin to Horseradish peroxidase (HRP) was carried out by a two-step glutaraldehyde procedure as described by Engvall (Engvall E., Enzyme Immunoassay ELISA and EMIT, Methods in Enzymology, 70, 419-439, 1980). The galactin-peroxidase conjugate was prepared in 50% glycerol-1% BSA and stored at -20° C. until use. The binding of the Gal-1 to photosensitizers with and without the galactose moiety was measured by an indirect ELISA method as described by Chen et al. […] The microtiter wells (Dynatech Laboratories, Chantilly, Va.) were coated with 2 μg asial fetuin (Sigma) in 100 μl of 0.1M sodium carbonate, 0.2% NaN3, pH 9.6 at 37° C. for 3h. The plates were tightly covered with parafilm and stored at 4° C. for use within three weeks. The optimal dilution for Gal-1HRP conjugate was determined by checker-board titration. For studying the effect of saccharides and their conjugates, 60 μl aliquots of diluted Gal-1-HRP conjugate containing 1.4 μg of Gal-1 were mixed separately in duplicate with 60 μl dilute buffer as well as serially diluted test compounds and incubated for 1 h at 37° C. A 100 μl aliquot was transferred to the microtiter wells, which had been coated with […] Fetuin, blocked and washed. The plates were then incubated for 1 h at 37° C. followed by color development with ABTS (Kirkegaard & Perry lab. Gaithersburg, Md.) and reading at 405 nm on an ELISA reader.

Chain of Gal-1 (P09382 whole entry): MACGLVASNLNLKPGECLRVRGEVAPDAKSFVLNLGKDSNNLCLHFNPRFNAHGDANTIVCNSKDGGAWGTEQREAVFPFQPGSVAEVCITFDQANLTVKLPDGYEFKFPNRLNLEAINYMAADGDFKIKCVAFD

Compound	cell kill [1]	cellular localization (Molt-4 cells; incubated for 3 hrs)	inhibition of Gal-1 binding (Gal-1; at 450 μM) [%]	fluorescence in presence of free lactose (Molt-4 cells; lactose 100 μM)	increase in I50 inhibition binding affinity compared to the galactose conjugate 2 (Gal-1) [fold]	IC50 (Gal-1; ELISA, read-out: I50, inhibition of Gal-1 binding)	inhibition at 450 µM (Gal-1; at 450 μM) [%]
Mesopurpurin-18-N-methyl-(2′-butadiene)imide [1a]	approximately 40%	intracellular localization	29				
C=C(C=CCO[C@@H]1O[C@H](CO)[C@@H](O[C@@H]2O[C@H](CO)[C@H](O)[C@H](O)[C@H]2O)[C@H](O)[C@H]1O)CN1C(=O)c2c3nc(cc4[nH]c(cc5nc(cc6[nH]c2c(c6C)C1=O)C(CC)=C5C)c(CC)c4C)C(C)C3CCC(=O)OC (mixture of isomers) [4a, Lactose-Chlorin conjugate joined with diene linkage]	100%			No fluorescence was observed	40	540 nM and 500 nM	29
